In US20230028441A1, “NOVEL HETEROARYL-TRIAZOLE COMPOUNDS AS PESTICIDES” (Bayer Aktiengesellschaft, priority 2019, published 2023):

Key:
Format in all cases: in vivo
[1] = tested on: green peach aphid (Myzus persicae); experiment: Myzus persicae oral test; settings: 120 h
Summary of the method: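 Aphids of mixed population ingest the compound preparation by sucking through a parafilm sheet stretched over wells holding test solution plus IPL41 insect medium (33%+15% sugar). Kill rate in percent is determined five days later.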

[2] = tested on: caterpillars of the fall army worm (Spodoptera frugiperda); experiment: Spodoptera frugiperda spray test (cotton leaves); settings: 168 h
Summary of the method: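 Cotton leaves sprayed with compound in water/DMF with 1000 ppm alkylaryl polyglycol ether emulsifier, ammonium salt and/or penetration enhancer at 1000 ppm added if necessary, then infested with fall armyworm caterpillars. Mortality in % scored after 7 days; 100% means all caterpillars killed.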

[3] = tested on: cattle tick larvae (Rhipicephalus microplus), strain Parkhurst, resistant against synthetic pyrethroids; experiment: Rhipicephalus (Boophilus) microplus in-vitro contact test, larval cattle tick; settings: 5 μg/cm^2 (=500 g/ha), after 48 hours, read-out: efficacy (larvae dead or moribund)
Summary of the method: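 Efficacy, 100% meaning all larvae dead or moribund, was judged at 48 h from loss of negative geotactic climbing. Larvae of the Parkhurst strain, 20–50 per tube, were exposed at 27° C and 85% humidity to acetone-coated tube surfaces; 900 ppm corresponded to 5 μg/cm^2.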

[4] = tested on: larvae of the banded cucumber beetle (Diabrotica balteata); experiment: Diabrotica balteata spray test; settings: 168 h, after 7 days, wheat seeds, read-out: efficacy (seedlings grown up); for pest or weed control at 32 µg/disc, 100 g/ha: 100 g/ha (=32 μg/well)
Summary of the method: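 Efficacy (%) read at day 7: 100% means seedlings grew like untreated, uninfested controls; 0% means no seedlings grew. Wheat seeds germinated 1 day on agar, sprayed with emulsified compound solution (1000 ppm emulsifier in water), then each well infested with 10-20 larvae.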

[5] = tested on: Blattella germanica strain PAULINIA; experiment: Blattella germanica test (BLTTGE surface treatment & contact assay); settings: 24 hours after contact, read-out: efficacy (mortality)
Experimental: (§1) Solvent: Aceton+2000 ppm rapeseed oil methyl ester (RME)
(§2) In order to produce a sufficient, active ingredient containing solution it is necessary to solve the test compound in the solvent-mix (acetone at 2 mg/ml/RME 2000 ppm). This solution is pipetted onto a glazed tile and after evaporation of the acetone, adult animals of the species Blattella germanica strain PAULINIA are placed onto the dried surface. The exposure time is 30 minutes.
(§3) Mortality in percent (%) is determined 24 hours after contact of the insects to the treated surface. 100% mortality means that all tested insects are dead, whereas 0% means that no insect died.

[6] = tested on: cattle ticks (Rhipicephalus microplus) strain Parkhurst, SP-resistant; experiment: Rhipicephalus (Boophilus) microplus dip test; settings: 100 ppm, egg deposition after 7 days
Experimental: Test animal: cattle ticks (Rhipicephalus microplus) strain Parkhurst, SP-resistant
Solvent: dimethyl sulfoxide
To produce a suitable preparation of active compound, 10 mg of active compound are dissolved in 0.5 mL solvent, and the concentrate is diluted with water to the desired concentration.
This compound solution is pipetted into tubes. 8-10 engorged, adult, female cattle ticks (Rhipicephalus microplus) are placed in perforated tubes. These tubes are immersed in the aqueous compound solution until the ticks are completely moistened. After the liquid has drained off, the ticks are transferred to a filter paper in a plastic tray and stored in a climate chamber.
After 7 days egg deposition of fertile eggs is monitored. Eggs where fertility is not visible are stored in a climate chamber till hatching after about 42 days. An efficacy of 100% means all eggs are infertile; 0% means all eggs are fertile.

[7] = tested on: Anopheles funestus strain FUMOZ-R; experiment: Anopheles funestus test (ANPHFU surface treatment & contact assay); settings: 24 hours after contact, read-out: efficacy (mortality)
Experimental: as §1
as §2, with “mosquitoes” for “animals”, “Anopheles funestus” for “Blattella germanica”, “FUMOZ-R (Hunt et al., Med. Vet. Entomol. 2005 September; 19(3): 271-275)” for “PAULINIA”
as §3

[8] = tested on: green peach aphid (Myzus persicae); experiment: Myzus persicae spray test; settings: foliar, 120 h, 100 g/ha, after 5 days, Chinese cabbage leaf disks
Summary of the method: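 Chinese cabbage leaf disks carrying all instars of Myzus persicae were sprayed with compound. The formulation was acetone/dimethylformamide diluted in water with 1000 ppm alkylarylpolyglycol ether emulsifier. Percent mortality was scored after 5 days, with 100% meaning all aphids killed.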

[9] = surface concentration 4 mg/m^2, 30 minutes exposure
[10] = surface concentration 20 mg/m^2, 30 minutes exposure

`CC(NC(=O)c1cc(Cl)cc(C(F)(F)F)c1)c1nc(N)nn1-c1ccc(Cl)cn1` (racemic) [I-006, N-[1-[5-amino-2-(5-chloro-2-pyridyl)-1,2,4-triazol-3-yl]ethyl]-3-chloro-5-(trifluoromethyl)benzamide] gave a mortality at 4 ppm [1] of 100%, a mortality at 20 ppm [2] of 100% and a pest or weed control at 5 µg/cm2 [3] of 100%. For the same compound, the pest or weed control at 32 µg/disc, 100 g/ha [4] was 100% and the pest or weed control at 160 µg/disc, 500 g/ha ([4]; 500 g/ha (=160 μg/well)) was 100%.

Work on `CNc1nc(C(C)NC(=O)c2cc(C(F)(F)F)cc(C(F)(F)F)c2)n(-c2ncccn2)n1` (centres unmarked) [I-088] yielded a mortality at 4 mg/m2 [5, 9] of 90 to 100%, a mortality at 20 mg/m2 [5, 10] of 90 to 100% and a mortality at 4 ppm [1] of 100%. The “efficacy (infertile eggs)” value [6] was 100%, the mortality at 4 mg/m2 [7, 9] was 90 to 100% and the mortality at 20 mg/m2 [7, 10] was 90 to 100%. It also gave a mortality at 100 g/ha [8] of 100%, a pest or weed control at 5 µg/cm2 [3] of 100% and a pest or weed control at 32 µg/disc, 100 g/ha [4] of 100%.
